# Experimental data published in article PMC4922569, “Antifibrotic Effects of the Dual CCR2/CCR5 Antagonist Cenicriviroc in Animal Models of Liver and Kidney Fibrosis” (PLoS ONE, 2016).
# Where a name gives a salt, the structure may show the parent alone.
# Experiments:
# [1] = system: monocyte/macrophage recruitment; assay: Thioglycollate (TG)-induced mouse model of peritonitis: peritoneal lavage monocyte/macrophage counts; assay type: in vivo; conditions: for Decrease in peritoneal lavage monocyte/macrophage counts compared to vehicle control: 48 h post-TG
# Description: A murine thioglycollate (TG)-induced model of peritonitis, where acute inflammation induced by intraperitoneal (IP) injection of TG results in a rapid increase in monocyte/macrophage migration into the peritoneal cavity, was employed to assess the effects of CVC on cell recruitment in vivo. The protocol was approved by the IACUC of Charles River Laboratories Preclinical Services, Montreal (PCS-MTL). The care and use of animals was conducted in accordance with the guidelines of the US National Research Council and the Canadian Council on Animal Care.
# (§1) Male C57BL/6 mice (n = 44; 8–10 weeks of age; Charles River Laboratories, Canada) were allocated to receive treatments via oral gavage (PO) on Days 1–5 in the following groups: non-disease control, vehicle control twice daily (BID), CVC 5 mg/kg/day (CVC5) BID, CVC 20 mg/kg/day (CVC20) BID, CVC 100 mg/kg/day (CVC100) BID, CVC20 QD, and positive control dexamethasone (corticosteroid known to reduce inflammation in a variety of animal models) 1 mg/kg QD (S1 Table). On Day 4, peritonitis was induced via IP injection of TG 3.85% (1 mL/animal) 2 hours post-dose in all groups except non-disease controls. Study endpoints included: peritoneal lavage cell counts and pharmacokinetic (PK) evaluation. Animals were sacrificed 48 hours post-TG injection by isoflurane inhalation, and peritoneal lavage and blood samples (0.7 mL) were collected. Differential cell counts were assessed in peritoneal lavage samples using an Advia® Hematology System (Siemens Healthcare Diagnostics, USA) with multispecies software and an analysis software designed for mouse peritoneal fluid on Advia® 120 (LabThruPut, USA). A 0.3 mL aliquot of the blood sample was processed to plasma for PK analysis.
# In the peritonitis mouse model, one-way analysis of variance with post-hoc Dunnett’s test was performed, using GraphPad Prism® (GraphPad Software, Inc., USA), on differential cell counts obtained from lavage in treatment groups versus the vehicle-control group. For the ex vivo migration of mouse monocytes, statistical significance was determined by a Student’s t test.
# [2] = system: TAA-induced liver fibrosis; assay: Rat model of thioacetamide (TAA)-induced liver fibrosis; assay type: in vivo; conditions: for Reduction in liver collagen deposition vs vehicle control: picrosirius red; for Reduction in protein expression of alpha-SMA vs vehicle control / Reduction in protein expression of collagen type 1 vs vehicle control: western blot, not statistically significant
# Description: The TAA model is commonly used for the evaluation of treatment at various stages of disease, from inflammation to cirrhosis. The protocol was approved by the Mount Sinai IACUC (approval number: LA12-00318) and animals were maintained according to the NIH guidelines. Anesthesia was performed with 1–5% isoflurane through inhalation; surgery was terminal.
# Using male Sprague-Dawley rats (n = 72, 10–12 weeks of age; Harlan Laboratories, USA), fibrosis was induced by IP administration of TAA at a dose of 150 mg/kg three times per week for 8 weeks. Rats (n = 4–8/group) received vehicle control, CVC 30 mg/kg/day (CVC30) or CVC100 QD PO during Weeks 0–8 (early intervention), Weeks 4–8 (established fibrosis) or Weeks 8–12 (cirrhosis reversal) and were sacrificed at Weeks 8, 8 or 12, respectively (S1 Table). Study endpoints included: body and liver weights, liver biochemistry (e.g. serum alanine and aspartate aminotransferase [ALT/AST]), extracellular matrix protein expression in liver tissue (collagen type 1 and alpha-SMA), mRNA expression (collagen type 1, alpha-SMA, beta-platelet-derived growth factor-beta receptor, TGF beta-receptor, matrix metalloproteinase 2, tissue inhibitor of metalloproteinases 1 [TIMP1] and 2 [TIMP2]) and liver morphology. For liver-function testing, plasma samples were obtained from blood collected from the vena cava. Livers were sectioned and fixed in 3.7% formalin, embedded in paraffin, cut at […] thickness and stained with hematoxylin and eosin (H&E) for histological examination.
# In the TAA model, serum ALT/AST levels were measured using VITROS® 5,1 FS (Ortho Clinical Diagnostics, USA), with plasma diluted with VITROS® 7% bovine serum albumin if needed. In the NASH model, plasma ALT levels were measured by FUJI DRI-CHEM 7000 (Fujifilm, Japan) and plasma CCL2 concentration quantified by the mouse CCL2/JE/MCP-1 immunoassay kit (R&D, USA).
# Collagen deposition (the extent of fibrosis) was visualized in liver/kidney sections with picrosirius red staining. In the TAA model, collagen quantification was performed using computerized Life Science morphometry system (BIOQUANT, USA) on a total of 36 images per animal at 100x magnification (four picrosirius red-stained slides per animal, with nine images taken randomly per slide).
# In the TAA model, total protein was extracted from liver cells and expression levels of collagen type 1 and alpha-SMA were assessed by western blotting. Protein expression levels were normalized to the reference protein (glyceraldehyde-3-phosphate dehydrogenase [GAPDH] or calnexin).
# In the hepatic-fibrosis models, RNA was extracted from liver tissues and purified, and 1 μg of total mRNA was reverse-transcribed into complementary DNA. Expression levels were determined by quantitative polymerase chain reaction (PCR) (iQ™ SYBR® Green Supermix [Bio-Rad Laboratories, USA] on the LightCycler® 480 Real-Time PCR System [Roche, Switzerland]) in the TAA model at Week 8 (early intervention and established fibrosis) and Week 12 (cirrhosis reversal), and by real-time PCR (PCR Dice® and SYBR® Premix Ex Taq™ [Takara Bio Inc., Japan]) at Week 9 in the NASH model.
# Relative mRNA expression levels were normalized to the following reference genes: TAA model, GAPDH; NASH model, 36B4 (gene symbol: Rplp0); UUO model, hypoxanthine phosphoribosyltransferase.
# Data are presented as ±standard error of the mean (SEM) in the TAA model. Statistical significance was determined by the two-tailed Student’s t test.
# [3] = CVC plasma levels in the TG-induced model of peritonitis (LC/MS/MS); assay type: in vivo; conditions: male, C57BL/6, mouse, oral, 20 mg/kg/day, CVC20 QD, n = 5, 26 hours post-dose, read-out: CVC trough plasma level
# Description: as §1
# CVC plasma levels (minimum and maximum) were determined by KCAS Bioanalytical Services, USA, using a validated liquid chromatography-tandem mass spectrometry (LC/MS/MS) plasma method (50 μL assay, range 10.0−1920.0 ng/mL).
# [4] = system: CCR5 on CD4+ and CD8+ T-cells; design: method as in earlier work; conditions: human PBMC ex vivo, cited from earlier work
# [5] = in mice; cited from earlier work
structure (smiles),measurement,setting,value
"CCCCOCCOc1ccc(-c2ccc3c(c2)/C=C(/C(=O)Nc2ccc([S@@+]([O-])Cc4cncn4CCC)cc2)CCCN3CC(C)C)cc1 [CVC, cenicriviroc mesylate]",Decrease in peritoneal lavage monocyte/macrophage counts compared to vehicle control,[1]; CVC5 (5 mg/kg/day) BID PO Days 1-5,5.7%
same,Decrease in peritoneal lavage monocyte/macrophage counts compared to vehicle control,[1]; CVC20 (20 mg/kg/day) BID PO Days 1-5,45.2%
same,Decrease in peritoneal lavage monocyte/macrophage counts compared to vehicle control,[1]; CVC20 (20 mg/kg/day) QD PO Days 1-5,26.0%
same,Decrease in peritoneal lavage monocyte/macrophage counts compared to vehicle control,[1]; CVC100 (100 mg/kg/day) BID PO Days 1-5,76.5%
same,Greater reduction in monocyte/macrophage count compared to dexamethasone,"[1]; CVC100 BID vs dexamethasone 1 mg/kg QD, p < 0.001",62.1%
same,Doses achieving statistically significant decrease in monocyte/macrophage recruitment,[1]; p < 0.05 vs vehicle control,≥ 20 mg/kg/day
same,"mRNA expression of the fibrosis markers assessed, CVC vs vehicle control",[2]; TAA model,no significant changes
same,"ALT levels, CVC-treated vs vehicle-control groups","[2]; TAA model, all groups",no significant differences
same,Reductions in collagen type 1 and alpha-SMA protein expression,[2]; advanced disease cirrhosis group,No reductions
same,"Histologic differences between groups, H&E-stained liver sections",[2]; all TAA groups,No histologic differences
same,Reduction in collagen deposition,"[2]; cirrhosis-reversal group, CVC treatment started at Week 8 (Weeks 8-12)",No significant reduction
same,Reduction in liver collagen deposition vs vehicle control,"[2]; early intervention (Weeks 0-8), CVC30 QD PO",48.5%
same,Reduction in liver collagen deposition vs vehicle control,"[2]; early intervention (Weeks 0-8), CVC100 QD PO",37.5%
same,AST levels vs vehicle control,"[2]; early intervention group, CVC30, p < 0.05",significantly decreased
same,Reduction in protein expression of alpha-SMA vs vehicle control,"[2]; early intervention, CVC30",17%
same,Reduction in protein expression of collagen type 1 vs vehicle control,"[2]; early intervention, CVC30",29%
same,Reduction in protein expression of alpha-SMA vs vehicle control,"[2]; early intervention, CVC100",22%
same,Reduction in protein expression of collagen type 1 vs vehicle control,"[2]; early intervention, CVC100",12%
same,Reduction in liver collagen deposition vs vehicle control,"[2]; established fibrosis (Weeks 4-8), CVC30 QD PO",35.7%
same,Significant antifibrotic effect (collagen deposition) observed,"[2]; established fibrosis (Weeks 4-8), CVC100 QD PO",not
same,Reduction in protein expression of alpha-SMA vs vehicle control,"[2]; established fibrosis, CVC30",14%
same,Reduction in protein expression of collagen type 1 vs vehicle control,"[2]; established fibrosis, CVC30",30%
same,concentration at 26 h,[3],25.7 ± 8.1 ng/mL
same,Receptor occupancy for CCR5 on CD8+ T-cells,[4]; at 2.3 nmol/L,≥ 90%
same,Receptor occupancy for CCR5 on CD4+ T-cells,[4]; at 3.1 nmol/L,≥ 90%
same,Half-life,[5],~ 2 hours
